Reference: patent US8288410B2, “3-substituted quinolinium and 7H-indolo[2,3-c]quinolinium salts as new antiinfectives” (Florida Agricultural and Mechanical University, priority 2008, dated 2012)

Experiments:
[1] = tested on: Candida albicans ATTC 90028; test: Antifungal susceptibility testing, Candida albicans; type: cell-based; conditions: for IC50: ATTC90028, Table 1, read-out: Ca IC50; for MFC: ATTC90028, Table 1, read-out: Ca MFC; for MIC: ATTC90028, Table 1, read-out: Ca MIC
Procedure, shortened: (§1)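 Modified NCCLS broth microdilution, samples serially diluted from 20 μg/mL top concentration, inocula per 0.5 McFarland (C. albicans in SDB or RPMI 1640; C. neoformans in SDB; A. fumigatus in YM broth or RPMI-1640 + 5% Alamar Blue). IC50 from percent growth versus concentration; MIC read visually as lowest concentration without detectable growth.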

[2] = tested on: Cryptococcus neoformans ATCC 90113; test: Antifungal susceptibility testing, Cryptococcus neoformans; type: cell-based; conditions: for IC50: ATCC90113, Table 1, read-out: Cn IC50; for MFC: ATCC90113, Table 1, read-out: Cn MFC; for MIC: ATCC90113, Table 1, read-out: Cn MIC
Procedure, shortened: as §1

[3] = tested on: Aspergillus fumigatus ATCC 90906; test: Antifungal susceptibility testing, Aspergillus fumigatus; type: cell-based; conditions: for IC50: ATCC90906, Table 1, Aspergillus fumigatus, read-out: A fu IC50
Procedure, shortened: as §1

MRSA = test: Antibacterial susceptibility testing, MRSA; type: cell-based, methicillin resistant Staphylococcus aureus; conditions: Staphylococcus aureus; for IC50: Table 1, read-out: MRS IC50; for MFC: Table 1, read-out: MRS MFC; for MIC: Table 1, read-out: MRS MIC
Procedure, shortened: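 MRSA, sourced from the American Type Culture Collection, was tested for susceptibility with a modified National Committee for Clinical Laboratory Standards method. DMSO sample solutions were serially diluted in saline and placed in duplicate in 96 well microplates. Broth-diluted bacterial suspensions, standardized to 0.5 McFarland, brought each well to 200 μL, with the highest test concentration at 20 μg/mL.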

Vero Cells = test: Cytotoxicity, Vero cells; type: cell-based; conditions: Table 1

Row | SMILES | IC50 [1] [µg/mL] | MFC [1] [µg/mL] | MIC [1] [µg/mL] | IC50 [2] [µg/mL] | MFC [2] [µg/mL] | MIC [2] [µg/mL] | A fu MIC [3] [µg/mL] | IC50 [3] [µg/mL] | IC50 (MRSA) [µg/mL] | MFC (MRSA) [µg/mL] | MIC (MRSA) [µg/mL] | TC50 Vero Cells (Vero Cells) | melting point [°C]
1 | FC(F)(F)c1ccccc1Sc1cc2ccccc2[n+](CCCCC[n+]2c3ccccc3cc3[nH]c4ccccc4c32)c1 [XYZ-IV-52] | > 20 | > 20 | > 20 | 4 | > 20 | 10 | 10 | 5 | 2 | > 20 | 5 | NC (NC = Not toxic at 10 μg/mL) | 154 to 156
2 | FC(F)(F)c1cccc(Sc2cc3ccccc3[n+](CCCCC[n+]3cc(Sc4cccc(C(F)(F)F)c4)cc4ccccc43)c2)c1 [XYZ-IV-55] | 15 | > 20 | > 20 | 0.95 | 20 | 2.5 |  | 7.5 | 0.8 | 10 | 2.5 | NC (NC = Not toxic at 10 μg/mL) | 167 to 168
